# Source: patent US20240182445A1 (ONO PHARMACEUTICAL CO., LTD., priority 2019, published 2024)
# Target: T1, human TREK-1 (Homo sapiens, UniProt O95069)
# T1 construct: expressed in transfected cells
# T1 sequence (O95069 1-426): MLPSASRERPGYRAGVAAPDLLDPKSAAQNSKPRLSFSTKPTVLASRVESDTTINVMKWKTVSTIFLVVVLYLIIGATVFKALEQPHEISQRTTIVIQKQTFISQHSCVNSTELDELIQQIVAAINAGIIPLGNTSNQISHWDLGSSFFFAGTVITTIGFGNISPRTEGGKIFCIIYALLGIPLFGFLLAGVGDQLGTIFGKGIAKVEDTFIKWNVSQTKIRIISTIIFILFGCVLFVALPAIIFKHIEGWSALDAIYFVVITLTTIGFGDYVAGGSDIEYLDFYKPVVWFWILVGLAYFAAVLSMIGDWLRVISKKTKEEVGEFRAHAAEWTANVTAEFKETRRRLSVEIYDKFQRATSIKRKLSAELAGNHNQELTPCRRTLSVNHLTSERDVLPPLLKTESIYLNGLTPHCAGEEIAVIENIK
# Experiment: TREK-1 Thallium (Tl+) flux assay, Method 1
# Assay type: cell-based
# Settings: TREK-1 Thallium (Tl+) flux assay, Method 1
# Procedure: The term “thallium flux assay” herein refers to a fluorescence-based assay used to monitor the activity of TREK channels. Thallium is a congener of potassium that readily fluxes through the pore of TREK channels. Thallium flux is measured using a commercially available, thallium-sensitive fluorescent dye called Thallos. The detail method is described below.
# CHO-K1 cells stably expressing human TREK-1 were plated in 384-well plates, cultured overnight, loaded with Thallos dye the following day. Test compounds or control compound (tert-butyl (3-((4-(benzyloxy)-2-methylphenyl)carbamoyl)-4-chlorophenyl)carbamate) or 0.3% DMSO (vehicle control) which were prepared on separate plates were added to the cell plates and incubated for 10 min, and then the cells were treated with thallium stimulus buffer to initiate thallium flux. To measure the efficacy and potency of test compounds, the change in fluorescence intensity (ΔRatio) and % inhibition were calculated using the following equations:
# ΔRatio=(fluorescence intensity at 25 seconds after thallium addition)/(average of fluorescent intensity before thallium addition)
row,IC50 [nM],SMILES
1,1600,"Cc1cc(-c2ccc(C(F)(F)F)nc2)cnc1NC(=O)c1c(Cl)cnn1C1CCN(C(=O)OC(C)(C)C)CC1 [Compound 396, tert-butyl 4-(4-chloro-5-((5-methyl-6′-(trifluoromethyl)-[3,3′-bipyridin]-6-yl)carbamoyl)-1H-pyrazol-1-yl)piperidine-1-carboxylate]"
2,1260,"CCC(=O)N[C@H]1CC[C@@H](n2ncc(Cl)c2C(=O)Nc2ccc(OCc3ccccc3)cc2C)CC1 [Compound 392, N-(4-(benzyloxy)-2-methylphenyl)-4-chloro-1-(cis-4-propionamidocyclohexyl)-1H-pyrazole-5-carboxamide]"
3,8110,CCC(=O)N1CCOC(Cn2ncc(Cl)c2C(=O)Nc2ccc(OCc3ccccc3)cc2C)C1 (stereo not drawn) [Compound 435]

# Same assay, conditions: TREK-1 Thallium (Tl+) flux assay; no *^12 (Method 2) mark on these rows
row,IC50 [nM],SMILES
1,1710,"CCN1CC(n2ncc(Cl)c2C(=O)Nc2ncc(C#Cc3ccccc3)cc2C)C1 [Compound 377, 4-chloro-1-(1-ethylazetidin-3-yl)-N-(3-methyl-5-(phenylethynyl)pyridin-2-yl)-1H-pyrazole-5-carboxamide]"
2,370,"Cc1cc(C#Cc2ccccc2)cnc1NC(=O)c1c(Cl)cnn1C[C@@H]1CCN(C(=O)OC(C)(C)C)C[C@H]1F [Compound 241, tert-butyl (3S,4S)-4-((4-chloro-5-((3-methyl-5-(phenylethynyl)pyridin-2-yl)carbamoyl)-1H-pyrazol-1-yl)methyl)-3-fluoropiperidine-1-carboxylate]"
3,930,"O=C(Nc1ncc(C#Cc2ccccc2)cc1F)c1c(Cl)cnn1CC1CCCO1 (stereo not drawn) [Compound 366, 4-chloro-N-(3-fluoro-5-(phenylethynyl)pyridin-2-yl)-1-((tetrahydrofuran-2-yl)methyl)-1H-pyrazole-5-carboxamide]"
4,590,"CC(=O)N1CCC(Cn2ncc(Cl)c2C(=O)Nc2ncc(C#Cc3ccc(F)cc3)cc2C)C(F)(F)C1 (stereo not drawn) [Compound 313, 1-((1-acetyl-3,3-difluoropiperidin-4-yl)methyl)-4-chloro-N-(5-((4-fluorophenyl)ethynyl)-3-methylpyridin-2-yl)-1H-pyrazole-5-carboxamide]"
5,760,"Cc1cc(C#Cc2ccc(F)cc2)cnc1NC(=O)c1c(Cl)cnn1C[C@@H]1CCCN(C(=O)OC(C)(C)C)C1 [Compound 344, tert-butyl (R)-3-((4-chloro-5-((5-((4-fluorophenyl)ethynyl)-3-methylpyridin-2-yl)carbamoyl)-1H-pyrazol-1-yl)methyl)piperidine-1-carboxylate]"

# Same assay, conditions: TREK-1 Thallium (Tl+) flux assay; values without footnote *12 are Method 1
row,IC50 [nM],SMILES
1,60,"CC(=O)N1CCC(n2ncc(Cl)c2C(=O)Nc2ncc(C#Cc3cccs3)cc2F)CC1 [Compound 18, 1-(1-acetylpiperidin-4-yl)-4-chloro-N-(3-fluoro-5-(thiophen-2-ylethynyl)pyridin-2-yl)-1H-pyrazole-5-carboxamide]"
2,120,"CC(=O)N1CCC(C#N)(Cn2ncc(Cl)c2C(=O)Nc2ncc(C#Cc3ccccc3)cc2F)CC1 [Compound 39, 1-((1-acetyl-4-cyanopiperidin-4-yl)methyl)-4-chloro-N-(3-fluoro-5-(phenylethynyl)pyridin-2-yl)-1H-pyrazole-5-carboxamide]"
3,90,"CC(=O)N1CCOC(Cn2ncc(Cl)c2C(=O)Nc2ncc(C#Cc3ccccc3)cc2F)C1 (stereo not drawn) [Compound 27, 1-((4-acetylmorpholin-2-yl)methyl)-4-chloro-N-(3-fluoro-5-(phenylethynyl)pyridin-2-yl)-1H-pyrazole-5-carboxamide]"
4,290,"Cc1cc(C#Cc2cccs2)cnc1NC(=O)c1c(Cl)cnn1[C@H]1C[C@@H]2CN(C(=O)C(C)C)C[C@@H]2C1 [Compound 187, 4-chloro-1-[(3aR,5s,6aS)-2-(2-methylpropanoyl)octahydrocyclopenta [c]pyrrol-5-yl]-N-{3-methyl-5-[(thiophen-2-yl)ethynyl]pyridin-2-yl}-1H-pyrazole-5-carboxamide]"
